From US8673890B2, “2,3-dihydro-1H-isoindol-1-imine derivatives useful as thrombin PAR-1 receptor antagonist” (Janssen Pharmaceutica NV, priority 2009, dated 2014)
Values joined by “and” are separate entries in the source; they are usually repeats but may differ in a detail not shown here. Identical values can stand only once.

Key:
washed platelets [1] = assay: Thrombin-induced platelet aggregation in washed platelets; format: cell-based, human; settings: Homo sapiens, Platelet
Method: (§1) Platelet aggregation studies were performed according to the method of Bednar et al. (Bednar, B., Condra, C., Gould, R. J., and Connolly, T. M., Thromb. Res., 77:453-463 (1995)). Platelet-rich plasma (PRP) concentrates prepared from healthy volunteers who were aspirin free for at least 7 days by venipuncture using ACD-A as anticoagulant was purchased from Biological Specialties, Inc. (Colmar, Pa.). PRP was centrifuged at 730 g for 15 min. The platelet pellet was washed twice in CGS buffer (13 mM sodium citrate, 30 mM glucose, 120 mM NaCl, pH 6.5) containing 1 U/ml apyrase (grade V, Sigma-Aldrich, St. Louis, Mo.), 1 mM EGTA, and re-suspended in Tyrode's buffer (140 mM NaCl, 2.7 mM KCl, 12 mM NaHCO3, 0.76 mM Na2HPO4, 5.5 mM dextrose, 5.0 mM HEPES, 0.2% BSA, pH 7.4). The platelets were diluted to 3×10^8 platelets/ml and kept >45 min at 37° C. before use. 105 μl of washed platelets, 2 mM CaCl2 and […] of fibrinogen (for PAR-1 peptide-induced platelet aggregation only) were added to a 96-well microliter plate. Platelet aggregation was initiated by the addition of serial concentrations of Har peptide or thrombin (Alpha; American Diagnostica, Cat. # 470HT, 2,500 NIH Units/mg). Buffer was added to one set of control wells. The assay plate was stirred constantly and intermittently placed in a microplate reader (Softmax, Molecular Devices, Menlo Park, Calif.) to read optical density (650 nm) at 0 and 5 minutes after the addition of the compound solutions. Aggregation was calculated as the decrease in optical density between the time 0- and 5-min measurements and expressed as % of aggregation.
(§2) For the inhibition assay, platelet aggregation measurements were conducted as described, with the additional step of test compound addition. Compounds were prepared in 100% DMSO and stored. On the day of the experiment, the compounds were diluted in the Tyrode's buffer containing 3% of DMSO as a 10× working solution. 15 μl of test compound solutions were added to 105 μl of platelets 5 min prior to CaCl2 and fibrinogen additions. Platelet aggregation was initiated by the addition of agonist shown to achieve 60-70% aggregation. Antagonist potency was estimated as a % inhibition of the control Har peptide or thrombin response to obtain an IC50.
(§3) Representative compounds of the present invention were tested according to the procedure described in Biological Example 2 above, with results in Table 9 below. In Table 9 where multiple values are listed for a particular compound, said numbers represent individual measurements (tests) for said compound.

[2] = tested on: platelets in platelet-rich plasma; assay: Thrombin-induced platelet aggregation in platelet-rich plasma; format: cell-based, human; settings: for IC50: multiple values = individual measurements
Method: (§4) The procedure for this assay is similar to that described in Biological Example 2, above. Briefly, platelet aggregation studies were performed according to the method of Bednar et al. (Bednar, B., Condra, C., Gould, R. J., and Connolly, T. M., Thromb. Res., 77:453-463 (1995)). Platelet-rich plasma (PRP) concentrates prepared from healthy volunteers who were aspirin free for at least 7 days by venipuncture using EDTA as anticoagulant was purchased from Biological Specialties, Inc. (Colmar, Pa.). PPP (platelet-poor-plasma) was obtained by centrifugation of PRP at Max (3,000 rpms) for 15 min at room temperature. PRP was diluted to yield platelet count of 300×10^3 platelets/μL with PPP. For thrombin induced platelet aggregation: 118 μL of 500 mM GPRP-NH2 was added to 12 mL of 300×10^3 platelets before using (to clean the fibrinogen in the plasma.) GPRP was added just before the experiment. 15 μL of test compound solutions were added to 120 μL of platelets 5 min prior the agonist additions. Platelet aggregation was initiated by the addition of agonist shown to achieve 60-70% aggregation. Antagonist potency was estimated as a % inhibition of the control Har peptide or thrombin response to obtain an IC50.
(§5) Where multiple values are listed for a particular compound, said numbers represent individual measurements (tests) for said compound.

[3] = target: T1, thrombin receptor (PAR-1) (Homo sapiens, UniProt P25116); assay: FLIPR-based calcium-flux assay with human smooth muscle cells (Har peptide agonist); format: cell-based; settings: HSMC; 30 nM Har (PAR1) peptide agonist; 80-min drug incubation; multiple values = individual measurements
T1 construct: Human aortic smooth muscle cells (HSMC) were purchased from Cascade Biologics; host or cells: human aortic smooth muscle cells (HSMC)
T1 sequence (P25116 22-425): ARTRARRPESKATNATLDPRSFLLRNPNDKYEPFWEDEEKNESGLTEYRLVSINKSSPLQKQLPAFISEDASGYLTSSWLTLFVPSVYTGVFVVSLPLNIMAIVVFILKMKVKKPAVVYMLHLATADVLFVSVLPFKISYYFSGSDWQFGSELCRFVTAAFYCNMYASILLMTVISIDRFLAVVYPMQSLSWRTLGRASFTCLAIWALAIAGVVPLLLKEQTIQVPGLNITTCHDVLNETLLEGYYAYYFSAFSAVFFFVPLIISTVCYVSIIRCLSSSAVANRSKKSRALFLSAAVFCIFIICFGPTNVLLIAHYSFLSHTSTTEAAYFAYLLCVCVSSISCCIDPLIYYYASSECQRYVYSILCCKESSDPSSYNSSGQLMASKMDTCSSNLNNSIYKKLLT
Method: Human aortic smooth muscle cells (HSMC) were purchased from Cascade Biologics (Portland, Oreg.) and cultured in M-231 containing smooth muscle cell growth supplement and 1× Antibiotic-Antimycotic.
To determine agonist concentration for compound testing: On the day prior to the assay, 100 μL of cells (2×10^5/mL) were seeded in clear, flat-bottom black-wall, tissue culture treated polystyrene 96-well plates and incubated at 37° C., 5% CO2. On the day of the assay, 50 μL of complete dye loading solution (FLIPR Calcium 3 Kit, Molecular Devices) was added to each well containing 100 μL of culture media. The cells were incubated for 30-45 min at 37° C., in 5% CO2 before initiating the assay on the FLIPR. The agonist effect of PAR1 peptide (S-(p-F-Phe)-Har-L-Har-KY-NH2; Har=homoarginine; referred to herein as “Har” peptide) was tested and the EC50 was determined. The EC60-70 dose was used (30 nM) for compound testing.
Compound testing: On the day prior to the assay, 90 μL of cells (2.2×10^5/mL) were seeded in clear, flat-bottom black-wall, tissue culture treated polystyrene 96-well plates and incubated at 37° C., 5% CO2. On the day of the assay, the test compounds were prepared at 10× in 3% DMSO Hanks buffer and 10 μL was added to each well (final DMSO concentration of 0.3%). The cells were incubated 20 min at 37° C., 5% CO2. Culture medium containing testing compounds was dumped and the cells were washed four times with DPBS containing 0.1% of BSA and re-fed with 80 μL of growth medium. 70 μL of BD (fluorescent) dye was loaded to the cells and incubated 45 min at 37° C. incubator. The plates were equilibrated to room temperature for 15 min. 4× PAR1 peptide (30 nM final concentration) agonist plate and the cell plate were placed in FLIPR's assay chamber. 50 μL agonist was added to the cells and data was recorded for 5 min. Raw fluorescence data was exported for each well and tabulated versus time within an ASCII file. Data was then imported into Excel® and the peak response over basal level was determined. The percent inhibition for each test compound was calculated by the changes of fluorescent density as a % inhibition of the control Har peptide response to obtain an IC50.
Representative compounds of the present invention were tested according to the procedure described in Biological Example 1 above, with results in Table 8 below. In Table 8 below, where multiple values are listed for a particular compound, said numbers represent individual measurements (tests) for said compound.

[4] = tested on: platelets in platelet-rich plasma; assay: Har peptide-induced platelet aggregation in platelet-rich plasma; format: cell-based, human; settings: multiple values = individual measurements
Method: as §4, §5

washed platelets [5] = assay: Har peptide-induced platelet aggregation in washed platelets; format: cell-based; settings: Homo sapiens
Method: as §1, §2, §3

| SMILES | IC50 (washed platelets [1]) [µM] | IC50 [2] | IC50 [3] | IC50 ([4]; Homo sapiens, Platelet) [nM] | IC50 (washed platelets [5]) [µM] | IC50 ([2]; Homo sapiens, Platelet) [nM] | IC50 [4] | inhibition at 10 µM ([2]; Homo sapiens, 10 μM compound) [%] |
| --- | --- | --- | --- | --- | --- | --- | --- | --- |
| COC(=O)c1ccc2c(c1)COc1cc3c(cc1OC2)CN(CC(=O)c1cc(N2CCOCC2)c(OC)c(C(C)(C)C)c1)C3=N [Compound 73] | 0.813 | 2430 nM and > 10000 nM | 0.047 µM and 0.057 µM | 6710 | 0.446 | – | – | – |
| COc1c(N2CCOCC2)cc(C(=O)CN2Cc3cc4c(cc3C2=N)OCc2cc3c(cc2CO4)OCO3)cc1C(C)(C)C [Compound 59] | 2.11 | – | 0.371 µM | 6120 | 1.25 | – | – | – |
| COc1c(N2CCOCC2)cc(C(=O)CN2Cc3cc4c(cc3C2=N)OCc2nccnc2CO4)cc1C(C)(C)C [Compound 58] | 0.304 | – | 0.103 µM | 749 | 0.214 | 803 | – | – |
| CC(C)(C)c1cc(C(=O)CN2Cc3cc4c(cc3C2=N)OCC(F)(F)CO4)cc(C(C)(C)C)c1O [Compound 93] | – | > 10000 nM | 0.27 µM and 0.13 µM | 2080 | – | > 10000 | 3800 nM | – |
| CC(C)(C)c1cc(C(=O)CN2Cc3cc4c(cc3C2=N)OCc2cccnc2CO4)ccc1O [Compound 83] | – | > 10000 nM | 0.24 µM and 0.35 µM | – | – | > 10000 | 840 nM and 1750 nM | – |

Second part, led by results:

| IC50 (washed platelets [1]) [µM] | IC50 [2] | IC50 [3] | IC50 ([4]; Homo sapiens, Platelet) [nM] | IC50 (washed platelets [5]) [µM] | IC50 ([2]; Homo sapiens, Platelet) [nM] | IC50 [4] | SMILES | inhibition at 10 µM ([2]; Homo sapiens, 10 μM compound) [%] |
| --- | --- | --- | --- | --- | --- | --- | --- | --- |
| 0.107 | 690 nM and 2430 nM | 0.019 µM and 0.059 µM and 0.023 µM and 0.038 µM | 390 | 0.068 | – | – | CC(C)(C)c1cc(C(=O)CN2Cc3cc4c(cc3C2=N)OCc2ncccc2CO4)cc(C(C)(C)C)c1O [Compound 49] | – |
| > 10 | > 10000 nM | 0.58 µM | 2060 | 0.309 | > 10000 | – | COc1c(C(C)(C)C)cc(C(=O)CN2Cc3cc4c(cc3C2=N)OCc2cccnc2CO4)cc1C(C)(C)C [Compound 76] | – |
| – | 1920 nM and 1550 nM | 0.046 µM and 0.074 µM | 630 | – | 1230 | 490 nM and 830 nM | CC(C)(C)c1cc(C(=O)CN2Cc3cc4c(cc3C2=N)OCc2nccnc2CO4)cc(C(C)(C)C)c1O [Compound 77] | – |
| – | – | 0.11 µM and 0.17 µM | 640 | – | 2570 | 930 nM | CC(C)(C)c1cc(C(=O)CN2Cc3cc4c(cc3C2=N)OCc2ncccc2CO4)ccc1O [Compound 82] | 21 |
| > 10 | 2190 nM and > 10000 nM | 0.39 µM and 0.46 µM | 3040 | 0.183 | – | – | COc1c(C(C)(C)C)cc(C(=O)CN2Cc3cc4c(cc3C2=N)OCc2ncccc2CO4)cc1C(C)(C)C [Compound 75] | – |
